# Experiments:
# [1] = test system: ovariectomized mouse (type I osteoporosis model animal); experiment: Change of bone mass in type I osteoporosis model animal (ovariectomized mice, dosing 3 months, femur pQCT); format: in vivo; conditions: for Bone density Cancellous bone, relative value / Bone density whole bone, relative value / Cortical bone Bone density, relative value / Cortical bone Bone thickness, relative value / Cortical bone adventitia diameter, relative value / Cortical bone lining membrane diameter, relative value / Polar axis bone strength, relative value (Table 3): Sham group = 100; for Polar axis strength (polar coordinates strength): SSI from pQCT; for Bone density Cancellous bone / Bone density whole bone: right femur, pQCT
# Excerpt: Female Slc: ddy mice of 4 weeks old (Japan SLC, Inc.) was operated with ovariectomy to use as a type I osteoporosis model animal. Also, in order to delete the affection by invasion, a group which is operated without ovariectomy (Sham operation) is set (Sham group). These were the […] model animals.
# Animal bedding were changed twice a week and always to use all fresh one, CRF-1 (Oriental Yeast Co., Ltd.) is fed as feed and deionized water as drinking water were freely given. Their body weights were weighed twice a week by the end of the experiment.
# Fargesin was dissolved in 30 mL of a solution (it is referred to as “TD solution”, hereinbelow) containing 4% dimethyl sulfoxide (it is referred to as “DMSO”, hereinbelow) and 4% TWEEN 80 (both were purchased from Wako Pure Chemical Industries, Ltd.) so as that a dosage amount of fargesin becomes 20 mg/kg body wt/day, or […].
# After the surgical operation, the mice were adapted to the circumstances for 5 days, and then they were divided to the Sham group, the negative control, the positive control group, and the test substance administration group (6 mice per group). The ovariectomized mice were used for the negative control group, the positive control group, and the test substance administration group.
# Fargesin solution was daily administrated to the ovariectomized mice in the test group at the dosage of 20 mg/kg body wt/day (it is referred to as “F20 group”, hereinbelow) or 100 mg/kg body wt/day (it is referred to as “F100 group”, hereinbelow) for 3 month p.o.
# In order to study effects of fargesin on the bone, the femur, the largest long bone, was used.
# The mice in each group were killed by the cervical dislocation under diethyl ether anesthesia. Their right femurs were excised with muscles, and the muscles were removed from the femur after the excision. Lengths of the excised bones from the mice in the groups were measured, and they were dipped in 70% ethanol to be fixed.
# In FIG. 3, the bone was shown schematically. The long bone (tubular bone) was composed of two thick and rounded ends (epiphysis), and thin and long part between them (a shaft). The bone extends to longitudinal direction, depending on the growth of a plate-shape epiphyseal cartilage (a growth plate) between the epiphysis and the shaft. The region of 1 mm proximal side from the A position for a measurement was set to that from 1 mm proximal region (epiphysis) from the distal growth plate as decided as the measurement region.
# The bone density was measured by using the peripheral quantitative computed tomography (pQCT, XCT Research SA+, Stratec Medizintechnik GmbH, Merk Ltd) (FIG. 3B). The measurement was performed under the conditions: a diameter of 90 mm, a voxel size of 0.12 mm, a CT speed of 10 mm/sec, and a block number of 1. Bone mineral content (mg/mm), bone density (mg/cm^3), and cross section of the bone (mm^2) of the entire of tomographic images (whole bone area) were calculated.
# Next, the area of the cancellous bone was extracted (peel mode 20), and then the bone mineral amount (mg/mm), the section of the bone (mm^2), and the bone density (mg/cm^3) were calculated. Further to the cortical bone, the bone mineral amount (mg/mm), the bone density (mg/cm^3), the section of the bone (mm^2), a bone thickness (mm), the periosteum perimeter of the cortical bone (mm), and the endosteum perimeter of the cortical bone (mm) were calculated.
# Based on the bone diameter and the bone density measured by the pQCT, SSI was calculated. SSI is composed of Polar SSI (torsion strength in polar coordination), X-axis SSI (strength in X axis, three-point bending strength), and Y-axis SSI (Y axis strength, three-point lateral bending strength), and it is expressed by the following general equation.
# Wherein, Z is the coefficient of the cross section (mm^3), CBD is the bone density of the cortical bone (mg/cm^3), and ND is the physiological bone density (1200 mg/cm^3). The coefficient Z is shown as the following equation.
# [2] = Cell viability, MTT test in MC3T3-E1; format: cell-based; conditions: mouse, MC3T3-E1 cells (osteoblast-like cell line), MC3T3-E1, negative control = 100
# Protocol: MC3T3-E1 cells ((IAA) the Institution of Physical and Chemical Research), osteoblast-like cell line derived from the mouse fetus cranial bone cells, were inoculated into the 96 well plate at 4,000 cells/well. As a medium, the basal medium prepared in the Example 3 supplemented with fargesin at 2 to 80 μM was used. Pre-culture was performed by using the basal medium only under the conditions of 5% CO2 and 37 degree centigrade for 3 days. After that, the conditioned medium was changed to fresh medium with fargesin; the culture was performed under the conditions of 5% CO2 and 37 degree centigrade for 3 days. On the day 4 from the culture start, the conditioned medium was changed to the fresh medium; the culture was further performed under the conditions of 5% CO2 and 37 degree centigrade for 3 days. After the termination of the culture, the following MTT test, measurement of ALP activities, and the staining were performed.
# Cell viability was measured by using MTT test. MTT reagent was prepared by dissolving 50 mg of 3-(4,5-dimethyl-thiazol-2-yl)-2,5-diphenyl tetrazolium bromide in 10 ml of PBS (−). After the termination of the culture, the medium containing fargesin was partially removed from each well to adjust the solution volume to 100 μL. Ten μl of the MTT reagent was then added to each well to be reacted to give blue-violet color in the CO2 incubator.
# After the termination of the reaction, all medium was removed from each well, 100 μl of DMSO as a lysis solution was added to each well, and then the absorbance was measured at 570 nm to study the viability of live cells.
# [3] = F20 group: 20 mg/kg body wt/day p.o.
# [4] = F100 group: 100 mg/kg body wt/day p.o.
# [5] = OVX mice, F20 group: 20 mg/kg body wt/day p.o., 3 months
# [6] = OVX mice, F100 group: 100 mg/kg body wt/day p.o., 3 months
smiles,measurement,setting,value
"COc1ccc([C@@H]2OC[C@H]3[C@@H]2CO[C@@H]3c2ccc3c(c2)OCO3)cc1OC [fargesin, Fargesin]","Bone density Cancellous bone, relative value",[1]; [3],123.0
same,"Bone density whole bone, relative value",[1]; [3],100.8
same,"Cortical bone Bone density, relative value",[1]; [3],(97.4)
same,"Cortical bone Bone thickness, relative value",[1]; [3],(91.1)
same,"Cortical bone adventitia diameter, relative value",[1]; [3],(105.3)
same,"Cortical bone lining membrane diameter, relative value",[1]; [3],(110.8)
same,"Polar axis bone strength, relative value (Table 3)",[1]; [3],104.2
same,"Bone density Cancellous bone, relative value",[1]; [4],131.3
same,"Bone density whole bone, relative value",[1]; [4],102.2
same,"Cortical bone Bone density, relative value",[1]; [4],(95.6)
same,"Cortical bone Bone thickness, relative value",[1]; [4],(102.5)
same,"Cortical bone adventitia diameter, relative value",[1]; [4],(104.2)
same,"Cortical bone lining membrane diameter, relative value",[1]; [4],(104.9)
same,"Polar axis bone strength, relative value (Table 3)",[1]; [4],71.6
same,Cortical bone Bone density,[1]; [5],859.483 ± 2.479 mg/mL
same,Cortical bone Bone thickness,[1]; [5],0.329 ± 0.026 mm
same,Cortical bone adventitia diameter,[1]; [5],8.4160 ± 0.116 mm
same,Cortical bone lining membrane diameter,[1]; [5],6.347 ± 0.160 mm
same,Polar axis bone strength (Table 3),[1]; [5],2.005 ± 0.154 mm^3
same,"bone mineral mass, cancellous bone",[1]; [5],0.855±0.067 mg/mm
same,"bone mineral mass, cortical bone",[1]; [5],2.087±0.160 mg/mm
same,"bone mineral mass, whole bone",[1]; [5],3.638±0.164 mg/mm
same,"cross section area of the bone, cortical bone",[1]; [5],2.427±0.185 mm^2
same,"cross section area of the bone, whole bone",[1]; [5],5.643±0.152 mm^2
same,Polar axis strength (polar coordinates strength),[1]; [5],1.615±0.090 mm^3
same,Bone density Cancellous bone,[1]; [5],431.283 ± 30.506 mg/mL
same,Bone density whole bone,[1]; [5],644.367 ± 20.387 mg/mL
same,Cortical bone Bone density,[1]; [6],843.55 ± 8.714 mg/mL
same,Cortical bone Bone thickness,[1]; [6],0.370 ± 0.051 mm
same,Cortical bone adventitia diameter,[1]; [6],8.3300 ± 0.278 mm
same,Cortical bone lining membrane diameter,[1]; [6],6.010 ± 0.313 mm
same,Polar axis bone strength (Table 3),[1]; [6],1.265 ± 0.147 mm^3
same,"bone cross section, whole bone",[1]; [6],5.550±0.351 mm^2
same,"bone mineral mass, cancellous bone",[1]; [6],0.920±0.102 mg/mm
same,"bone mineral mass, cortical bone",[1]; [6],2.240±0.320 mg/mm
same,"bone mineral mass, whole bone",[1]; [6],3.660±0.326 mg/mm
same,"cross section area of the bone, cortical bone",[1]; [6],2.640±0.361 mm^2
same,Polar axis strength (polar coordinates strength),[1]; [6],1.666±0.087 mm^3
same,Bone density Cancellous bone,[1]; [6],460.500 ± 36.222 mg/mL
same,Bone density whole bone,[1]; [6],653.300 ± 29.083 mg/mL
same,"viability at 6 days, 2 µM",[2]; 2 μM,106 ± 3.2%
same,"viability at 6 days, 6 µM",[2]; 6 μM,105 ± 3.3%
same,"viability at 6 days, 20 µM",[2]; 20 μM,100 ± 3.4%
same,"viability at 6 days, 60 µM",[2]; 60 μM,89.1 ± 3.9%
same,"viability at 6 days, 80 µM",[2]; 80 μM,92.6 ± 3.7%

# Source: patent US20130253048A1, “Pharmaceutical Composition for Promoting Osteogenesis Containing Axial-equatorial Aryl-oriented Furofuran-type Lignan, and Pharmaceutical Preparation, Functional Food Product, and Health Food Product Comprising Composition” (ERINA CO., INC., priority 2010, published 2013)
